From patent US9132161B2

Assays:
ERβ [1] = molecular target: T1, ERβ (Homo sapiens, UniProt Q92731); assay: TNF-RE tkLuc repression in U2OS cells, ERβ; type: cell-based; set-up: expressed in transfected cells
ERβ [2] = molecular target: T1, ERβ; conditions: in the presence of ERβ
TNF-RE tkLuc = assay: Antiestrogen effect on TNF-RE tkLuc (Example 2); type: cell-based, human; conditions: for effect on the repression induced by E2: TNF-RE tkLuc; for activation of TNF-RE tkLuc: antiestrogens, in contrast to E2
ERβ [3] = molecular target: T1, ERβ; assay: ERE-tk-Luc luciferase assay in U2OS cells, ERβ; type: cell-based; set-up: expressed in transfected cells; host or cells: U2OS (human osteosarcoma), electroporated; conditions: competition with herb 6, U2OS cells, FIG. 6
[4] = tested on: postmenopausal women who have osteoporosis; conditions: median follow-up of 40 months, cited from earlier work
[5] = tested on: women considered to be at high risk for breast cancer; conditions: cited from earlier work
[6] = tested on: women with estrogen receptor-positive breast cancer; conditions: five years of therapy; cited from earlier work

T1 sequence (Q92731 whole entry): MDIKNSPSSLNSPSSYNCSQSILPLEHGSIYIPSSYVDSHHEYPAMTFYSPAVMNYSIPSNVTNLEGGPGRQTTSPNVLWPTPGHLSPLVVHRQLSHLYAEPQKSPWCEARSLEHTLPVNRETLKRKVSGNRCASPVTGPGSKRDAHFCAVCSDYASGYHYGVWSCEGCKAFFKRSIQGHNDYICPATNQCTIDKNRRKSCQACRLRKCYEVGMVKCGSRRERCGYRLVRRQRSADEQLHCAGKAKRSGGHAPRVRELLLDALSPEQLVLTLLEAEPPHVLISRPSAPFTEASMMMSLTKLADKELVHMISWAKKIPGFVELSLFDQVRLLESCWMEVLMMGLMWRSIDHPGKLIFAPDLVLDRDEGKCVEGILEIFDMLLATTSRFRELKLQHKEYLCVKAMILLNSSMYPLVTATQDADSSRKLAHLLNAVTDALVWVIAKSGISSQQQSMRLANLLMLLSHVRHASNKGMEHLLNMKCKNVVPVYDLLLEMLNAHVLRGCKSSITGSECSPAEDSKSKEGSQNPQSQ

Row | repression of TNF-α activation of TNF-RE (ERβ [1]) [%] | repression of TNF-α activation of TNF-RE tkLuc (ERβ [2]) | effect on herb 6 stimulation of the ERE with ERβ (ERβ [3]) | SMILES | effect on the repression induced by E2 (TNF-RE tkLuc) | activation of TNF-RE tkLuc (TNF-RE tkLuc) [fold] | cases of breast cancer in the treatment group ([4]; among 5129 women) [cases] | RR of breast cancer versus placebo [4] | reduction of the risk of primary invasive breast cancer [5] [%] | reduction of mortality from breast cancer [6] [%] | reduction of the risk of recurrences [6] [%]
1 | 100 | 60-80% | – | C[C@]12CC[C@@H]3c4ccc(O)cc4CC[C@H]3[C@@H]1CC[C@@H]2O [E2, estradiol] | – | – | – | – | – | – | –
2 | – | – | inhibited | O=C(c1ccc(OCCN2CCCCC2)cc1)c1c(-c2ccc(O)cc2)sc2cc(O)ccc12 [raloxifene] | abolished the repression induced by E2 | 2 | 13 | 0.24 | – | – | –
3 | – | – | – | C[C@]12CC[C@@H]3c4ccc(O)cc4C[C@@H](CCCCCCCCC[S+]([O-])CCCC(F)(F)C(F)(F)F)[C@H]3[C@@H]1CC[C@@H]2O (some centres unmarked) [ICI 182, 780] | abolished the repression induced by E2 | 2 | – | – | – | – | –
4 | – | – | – | CC/C(=C(\c1ccccc1)c1ccc(OCCN(C)C)cc1)c1ccccc1 [tamoxifen] | abolished the repression induced by E2 | 2 | – | – | 49 | 22 | 42
